#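 In this assay, cells in 96-well plates receive the compound at five concentrations for 48 hours. Endpoints are linearly interpolated between the surrounding concentrations. GI50 is the concentration that inhibits growth by half.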 Activity calls are given as the source filed them. Cut-off read from the data, not from the text of the source: active = GI50 up to about 1.1 µM and inactive = higher.
# Assays:
# Experiment in all cases: inhibition of tumour cell growth, NCI panel, 48 h
# 786-0 = system: 786-0
# A498 = system: A498
# A549 = system: A549
# ACHN = system: ACHN
# BT-549 = system: BT-549
# CAKI-1 = system: CAKI-1
# CCRF-CEM = system: CCRF-CEM
# COLO 205 = system: COLO 205
# DLD-1 = system: DLD-1
# DMS-114 = system: DMS-114
# DMS-273 = system: DMS-273
# DU-145 = system: DU-145
# EKVX = system: EKVX
# HCC 2998 = system: HCC 2998
# HCT-116 = system: HCT-116
# HCT-15 = system: HCT-15
# HL-60 = system: HL-60
# HOP-18 = system: HOP-18
# HOP-62 = system: HOP-62
# HOP-92 = system: HOP-92
# HT-29 = system: HT-29
# Hs-578T = system: Hs-578T
# IGROV-1 = system: IGROV-1
# K562 = system: K562
# KM-20L2 = system: KM-20L2
# KM12 = system: KM12
# LOX IMVI = system: LOX IMVI
# LXFL 529 = system: LXFL 529
# M14 = system: M14
# M19-MEL = system: M19-MEL
# MCF7 = system: MCF7
# MDA-MB-231 = system: MDA-MB-231
# MDA-MB-435 = system: MDA-MB-435
# MDA-N = system: MDA-N
# MOLT-4 = system: MOLT-4
# Malme-3M = system: Malme-3M
# NCI-H226 = system: NCI-H226
# NCI-H23 = system: NCI-H23
# NCI-H460 = system: NCI-H460
# NCI-H522 = system: NCI-H522
# NCI/ADR-RES = system: NCI/ADR-RES
# OVCAR-3 = system: OVCAR-3
# OVCAR-4 = system: OVCAR-4
# OVCAR-5 = system: OVCAR-5
# OVCAR-8 = system: OVCAR-8
# PC-3 = system: PC-3
# RPMI-8226 = system: RPMI-8226
# RXF 393 = system: RXF 393
# RXF 631 = system: RXF 631
# SF-268 = system: SF-268
# SF-295 = system: SF-295
# SF-539 = system: SF-539
# SK-MEL-28 = system: SK-MEL-28
# SK-MEL-2 = system: SK-MEL-2
# SK-MEL-5 = system: SK-MEL-5
# SK-OV-3 = system: SK-OV-3
# SN12C = system: SN12C
# SNB-19 = system: SNB-19
# SNB-75 = system: SNB-75
# SNB-78 = system: SNB-78
# SR = system: SR
# SW-620 = system: SW-620
# T47D = system: T47D
# TK-10 = system: TK-10
# U-251 = system: U-251
# UACC-257 = system: UACC-257
# UACC-62 = system: UACC-62
# UO-31 = system: UO-31
# XF498 = system: XF498
structure (smiles),measurement,setting,value
CS(=O)(=O)c1cc(=O)c2ccccc2s1,GI50,786-0,5.55 µM (inactive)
same,GI50,A498,17.1 µM (inactive)
same,GI50,A549,18.4 µM (inactive)
same,GI50,ACHN,2.74 µM (inactive)
same,GI50,BT-549,19.3 µM (inactive)
same,GI50,CAKI-1,2.07 µM (inactive)
same,GI50,CCRF-CEM,1.53 µM (inactive)
same,GI50,COLO 205,1.76 µM (inactive)
same,GI50,DLD-1,1.91 µM (inactive)
same,GI50,DMS-114,4.82 µM (inactive)
same,GI50,DMS-273,8.77 µM (inactive)
same,GI50,DU-145,16.1 µM (inactive)
same,GI50,EKVX,9.06 µM (inactive)
same,GI50,HCC 2998,14 µM (inactive)
same,GI50,HCT-116,1.96 µM (inactive)
same,GI50,HCT-15,2.25 µM
same,GI50,HL-60,1.84 µM (inactive)
same,GI50,HOP-18,3.85 µM (inactive)
same,GI50,HOP-62,20.5 µM (inactive)
same,GI50,HOP-92,1.8 µM (inactive)
same,GI50,HT-29,5.01 µM (inactive)
same,GI50,Hs-578T,26.6 µM (inactive)
same,GI50,IGROV-1,18.5 µM (inactive)
same,GI50,K562,1.33 µM (inactive)
same,GI50,KM-20L2,11.7 µM (inactive)
same,GI50,KM12,15.5 µM (inactive)
same,GI50,LOX IMVI,6.68 µM (inactive)
same,GI50,LXFL 529,1.63 µM (inactive)
same,GI50,M14,1.85 µM (inactive)
same,GI50,M19-MEL,7.69 µM (inactive)
same,GI50,MCF7,2.72 µM (inactive)
same,GI50,MDA-MB-231,15 µM (inactive)
same,GI50,MDA-MB-435,11 µM (inactive)
same,GI50,MDA-N,4.46 µM (inactive)
same,GI50,MOLT-4,1.72 µM (inactive)
same,GI50,Malme-3M,1.8 µM (inactive)
same,GI50,NCI-H226,13.7 µM (inactive)
same,GI50,NCI-H23,9.06 µM (inactive)
same,GI50,NCI-H460,18.1 µM (inactive)
same,GI50,NCI-H522,1.24 µM (inactive)
same,GI50,NCI/ADR-RES,18 µM (inactive)
same,GI50,OVCAR-3,2.61 µM (inactive)
same,GI50,OVCAR-4,2.9 µM (inactive)
same,GI50,OVCAR-5,11.8 µM (inactive)
same,GI50,OVCAR-8,2.93 µM (inactive)
same,GI50,PC-3,17.6 µM (inactive)
same,GI50,RPMI-8226,2.42 µM (inactive)
same,GI50,RXF 393,3.91 µM (inactive)
same,GI50,RXF 631,11 µM (inactive)
same,GI50,SF-268,14.1 µM (inactive)
same,GI50,SF-295,13.7 µM (inactive)
same,GI50,SF-539,13.2 µM (inactive)
same,GI50,SK-MEL-28,3.72 µM (inactive)
same,GI50,SK-MEL-2,15.3 µM (inactive)
same,GI50,SK-MEL-5,14.3 µM (inactive)
same,GI50,SK-OV-3,17.6 µM (inactive)
same,GI50,SN12C,9.53 µM (inactive)
same,GI50,SNB-19,17.5 µM (inactive)
same,GI50,SNB-75,16 µM (inactive)
same,GI50,SNB-78,4.99 µM (inactive)
same,GI50,SR,2.07 µM (inactive)
same,GI50,SW-620,1.86 µM (inactive)
same,GI50,T47D,3.08 µM (inactive)
same,GI50,TK-10,7.28 µM (inactive)
same,GI50,U-251,19.7 µM (inactive)
same,GI50,UACC-257,3.54 µM (inactive)
same,GI50,UACC-62,12.2 µM (inactive)
same,GI50,UO-31,15.7 µM (inactive)
same,GI50,XF498,2.14 µM (inactive)

# Reference: ChEMBL document CHEMBL1201862, “PubChem BioAssay data set” (2004)
